The subject of one assay is Salvinia molesta. Briefly: Greenhouse spray test on giant salvinia, living biomass. It is filed as in vivo. Particulars: for type of new growth / decrease of living biomass weight compared to the water control: 1% concentration; for type of new growth: compound alone; for decrease of living biomass weight compared to the water control: nine days after the treatment; for Living Biomass (mean ± s.d.): 10 mL spray on three type III plants per container, day nine. The protocol: General Experimental Procedure: Observations of giant salvinia growth in a greenhouse were performed under 28 different treatment conditions and control conditions with NANOPURE™ water or 0.5% DYNE-AMIC® (methyl esters of C16-C18 fatty acids, polyalkyleneoxide modified polydimethylsiloxane, and alkylphenol ethoxylate 99%, (Helena, Collierville, Tenn., United States)) (v:v).
Materials—4-hydroxybenzoic acid (>95%, HPLC analysis) and 3,4-dihydroxybenzoic acid (>95%) were isolated from S. molesta matter using the method as described in (Li, Wang et al. 2013). Ethylparaben (>99%) was purchased from a commercial source. Each of 4-hydroxybenzoic acid, 3,4-dihydroxybenzoic acid, and ethylparaben were prepared as 50 mL experimental solutions with NANOPURE™ water at the concentration of 0.5, 1.0, 1.5, and 2.0%, respectively. 0.5, 1.0, 1.5, and 2.0% 4-hydroxybenzoic acid, 3,4-dihydroxybenzoic acid, and ethylparaben with 0.5% surfactant DYNE-AMIC® was also prepared as 50 mL experimental solutions with NANOPURE™ water. Mixtures of 4-hydroxybenzoic acid with 3,4-dihydroxybenzoic acid (2:1, w:w) were prepared as 50 mL experimental solutions with NANOPURE™ water at the total concentration of 0.5, 1.0, and 1.5%, respectively. 3,4-dihydroxybenzoic acid was mixed with ethylparaben (2:1, w:w) and prepared as 50 mL experimental solution with NANOPURE™ water at the total concentration of 0.5, 1.0, and 1.5%, respectively.
Bioassay—For each treatment, a total of nine healthy and untreated living plants of S. molesta (type III, the biomass of three plants weighs approximately 10 g) were cultured in tap water in three plastic containers severing as three replications (14×15 cm, 0.68 L) with three plants each in a greenhouse (30° C. during the day time and 20° C. at night). The three plants in each of the three containers per treatment were sprayed with 10 mL NANOPURE™ water, 0.5% DYNE-AMIC®, or the experimental solution. Plant growth and survival status were documented and photographed in each treatment on day nine after the treatment. Pairwise comparisons for all treatments (including Control) in living biomass were made using Tukey test at alpha=0.05, which was done using SAS (SAS 9.4).

In assay [1] the test system is S. molesta. Briefly: Phytotoxic analysis by pipet application on upper or lower leaf surface. It is filed as in vivo, Salvinia molesta. Particulars: Salvinia molesta, topical, 72 h. The protocol:
General Experimental Procedure: 4-Hydroxybenzoic and 3,4-dihydroxybenzoic acids and 14 of their analogs were purchased commercially. Each of 16 compounds were prepared as 5 mL experimental solutions with NANOPURE™ water at 1% concentration. A total of 102 healthy and untreated living type III plants of S. molesta (approximately 10 g in fresh weight each) were cultured and tested in 17 plastic containers (23×23 cm, 2.37 L) with six plants in each container in a greenhouse (30° C. during the day time and 20° C. at night). The first container served as the controls without any treatment, the plants in each of the other 16 containers were treated by one of the 16 testing compounds, respectively. The plants in each container were randomly classified into two groups evenly. For each plant in the first group, 10 μL of 1% experimental solution was applied by pipet on the upper surface of each blade of the six pairs of large floating leaves close to the terminal bud. For each plant in the second group, 10 μL of 1% experimental solution was applied by pipet on the lower surface of each blade of the six pairs of large floating leaves close to the terminal bud. The leaf surfaces were examined for damage and analyzed 72 hrs after the treatments.

The subject of assay [2] is S. molesta. Kind of assay: Field test in an isolated pond, foliar spray with DAWN dish soap (Example 16). The class given is in vivo, Salvinia molesta. Particulars: 0.5% with 0.25% soap; for small S. molesta plants dead: 48 h after the first treatment; for new growths induced (small plants): after first treatment; for fate of newly emerged type I plants: after the second treatments; for type III S. molesta plants on the top layer of the dense mats killed or severely injured: within 48 hrs of the first treatment. The protocol:
General Experimental Procedure: Field experiments were conducted in an isolated pond in east Texas, United States. The pond was infested with type III S. molesta plants that formed dense mats along the edge and type I and II plants floating on the water surface. 4-hydroxybenzoic and 3,4-dihydroxybenzoic acids were purchased from a commercial source (99.9%, HPLC analysis). 500 m^2 of S. molesta was treated with 50 L 0.5% 4-hydroxybenzoic acid mixed with 0.25% DAWN® dish soap and 500 m^2 of S. molesta was treated with 50 L 0.5% 3,4-dihydroxybenzoic acid mixed with 0.25% DAWN® dish soap by Solo 433 motorized backpack sprayer. Plant growth and survival status were documented through photographs and the living biomass was sampled 48 hrs after each treatment. The experimental species for selectivity tests were mainly common species associate with S. molesta or species growing in nearby habitats. The species included one fern species, Carolina mosquito fern (A. caroliniana), and 11 herbaceous invasive aquatic species of angiosperms (flowering plants), namely, water hyacinth (Eichharnia crassipes (Mart.) Solms) of the family Pontederiaceae, least duckweed (Lemna minuta) and Brazilian watermeal (Wolffia brasillensis Weddell) of the family Araceae, and hydrilla (Hydrilla verticillata (L.f.) Royle) of the family Hydrocharitaceae, alligator weed (Alternanthera philoxeroides Griseb.) of the family Amaranthaceae, knotweed (Polygonum sp.) and redvine (Brunnichia ovata Walter) of the family Polygonaceae, water primrose (Ludwigia sp.) of the family Onagraceae, cattail (Typha latifolia L.) of the family Typhaceae, proliferating bulrush (Isolepis prolifera (Rottb.) R. Br.) of the family Cyperaceae, and coontail (Ceratophyllum demersum L.) of the family Ceratophyllaceae and four woody plants, namely, baldcypress (Taxodium distichum (L.) Rich.) of the family Cupressaceae, loblolly pine (Pinus taeda L.) of the family Pinaceae, Chinese tallow (T. sebifera), and buttonbush (Cephalanthus occidentalis L.) of the family Rubiaceae. At least 30 plants for each of 12 herbaceous species and three seedlings of each of the four woody species were sprayed during the treatment of S. molesta.

The subject of assay [3] is common species associate with S. molesta or species growing in nearby habitats. Briefly: Field selectivity test on associated plant species (Example 16). The class given is in vivo. Particulars: 0.5% with 0.25% soap; after two foliar applications. The protocol:
General Experimental Procedure: Field experiments were conducted in an isolated pond in east Texas, United States. The pond was infested with type III S. molesta plants that formed dense mats along the edge and type I and II plants floating on the water surface. 4-hydroxybenzoic and 3,4-dihydroxybenzoic acids were purchased from a commercial source (99.9%, HPLC analysis). 500 m^2 of S. molesta was treated with 50 L 0.5% 4-hydroxybenzoic acid mixed with 0.25% DAWN® dish soap and 500 m^2 of S. molesta was treated with 50 L 0.5% 3,4-dihydroxybenzoic acid mixed with 0.25% DAWN® dish soap by Solo 433 motorized backpack sprayer. Plant growth and survival status were documented through photographs and the living biomass was sampled 48 hrs after each treatment. The experimental species for selectivity tests were mainly common species associate with S. molesta or species growing in nearby habitats. […]

The test system of another assay is dihuang. Particulars: in vivo; cited from earlier work.

SMILES strings stand for the structures. Read-outs that look alike come from different tables or passages of the source. Where only a bound is given, the exact number is not on record here.

Take `O=C(O)c1ccc(O)c(O)c1` [3,4-dihydroxybenzoic acid]: in the assay with Salvinia molesta, the “type of new growth” value is “type I only” and the “decrease of living biomass weight compared to the water control” value came to 76.5%. In the assay on Salvinia molesta (total concentration 0.5%), the “Living Biomass (mean ± s.d.)” value stood at 17.1 g. Moreover, the “Living Biomass (mean ± s.d.)” value with Salvinia molesta (total concentration 1.0%) came out at 9.2 g. Also, the “Living Biomass (mean ± s.d.)” value in the assay on Salvinia molesta (total concentration 1.5%) was 14.3 g. Besides, the “Living Biomass (mean ± s.d.)” value in the assay on Salvinia molesta (total concentration 2.0%) came out at 5.8 g. Besides, in the assay with S. molesta [1] (read-out: Inhibition (%) Lower leaf Application, 10 μL of 1% solution per blade, lower surface), the pest or weed control at 1 % is 72.2%. Further, the pest or weed control at 1 % in the assay with S. molesta [1] (read-out: Inhibition (%) Upper leaf Application, 10 μL of 1% solution per blade, upper surface) was > 85%. Further, in the assay on S. molesta [2], the “small S. molesta plants dead” value is on record as > 80%, the “new growths induced (small plants)” value is “type I only”, the “fate of newly emerged type I plants” value is given as “all newly emerged type I plants were killed” and the “type III S. molesta plants on the top layer of the dense mats killed or severely injured” value was 100%. Besides, the “damage to other species tested for selectivity” value in assay [3] was “none of the other species tested for selectivity except A. caroliniana were severely damaged or killed”. In addition, the “effect on growth of dihuang” value with dihuang was “inhibit some growth”.
Consider `O=C(O)c1ccc(O)cc1` [4-Hydroxybenzoic acid], for which, in the assay with Salvinia molesta, the “type of new growth” value is reported as “type I only” and the “decrease of living biomass weight compared to the water control” value was 85.5%. Besides, the “S. molesta plants eliminated” value in the assay with Salvinia molesta (2% concentration) is given as 100%. Moreover, the “Living Biomass (mean ± s.d.)” value in the assay with Salvinia molesta (total concentration 0.5%) is on record as 20.1 g. Also, the “Living Biomass (mean ± s.d.)” value with Salvinia molesta (total concentration 1.0%) turned out to be 4.3 g. For the same compound, in the assay with Salvinia molesta (total concentration 1.5%), the “Living Biomass (mean ± s.d.)” value is 2.3 g. For the same compound, the “Living Biomass (mean ± s.d.)” value in the assay with Salvinia molesta (total concentration 2.0%) is 0 g. In addition, the pest or weed control at 1 % in the assay with S. molesta [1] (10 μL of 1% solution per blade, lower surface, read-out: Inhibition (%) Lower leaf Application) worked out at 100%. Moreover, in the assay with S. molesta [1] (10 μL of 1% solution per blade, upper surface, read-out: Inhibition (%) Upper leaf Application), the pest or weed control at 1 % is > 85%. For the same compound, in the assay with S. molesta [2], the “small S. molesta plants dead” value is given as > 90%, the “new growths induced (small plants)” value was “type I only”, the “fate of newly emerged type I plants” value is listed as “all newly emerged type I plants were killed” and the “type III S. molesta plants on the top layer of the dense mats killed or severely injured” value is recorded as 100%. The “damage to other species tested for selectivity” value in assay [3] is on record as “none of the other species tested for selectivity except A. caroliniana were severely damaged or killed”. In addition, in the assay on dihuang, the “effect on growth of dihuang” value is “inhibit some growth”.

Source of the values: patent US11350582B2, “Plant varieties by application of endocides” (Stephen F. Austin State University, priority 2015, dated 2022).
